# Experimental data taken from patent publication US20240360146A1, “BRUTON'S TYROSINE KINASE AND MUTANT DEGRADER, COMPOSITION AND APPLICATION THEREOF” (HANGZHOU HEALZEN THERAPEUTICS CO., LTD., priority 2021, published 2024).
# Molecular target: T1, BTK (Homo sapiens, UniProt Q06187)
# T1 construct: endogenous in cells; host or cells: Mino cells
# Assay: BTK degradation activity test in Mino cells
# Assay type: cell-based
# Settings: 16 h incubation, Western blot or Elisa
# Outline: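 DC50 derived by curve fitting of BTK degradation rates versus untreated control across compound concentrations. Mino cells were exposed for 16 h; BTK levels in lysates, normalised via BCA protein, measured by Western blot or ELISA.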
# T1 sequence (Q06187 whole entry): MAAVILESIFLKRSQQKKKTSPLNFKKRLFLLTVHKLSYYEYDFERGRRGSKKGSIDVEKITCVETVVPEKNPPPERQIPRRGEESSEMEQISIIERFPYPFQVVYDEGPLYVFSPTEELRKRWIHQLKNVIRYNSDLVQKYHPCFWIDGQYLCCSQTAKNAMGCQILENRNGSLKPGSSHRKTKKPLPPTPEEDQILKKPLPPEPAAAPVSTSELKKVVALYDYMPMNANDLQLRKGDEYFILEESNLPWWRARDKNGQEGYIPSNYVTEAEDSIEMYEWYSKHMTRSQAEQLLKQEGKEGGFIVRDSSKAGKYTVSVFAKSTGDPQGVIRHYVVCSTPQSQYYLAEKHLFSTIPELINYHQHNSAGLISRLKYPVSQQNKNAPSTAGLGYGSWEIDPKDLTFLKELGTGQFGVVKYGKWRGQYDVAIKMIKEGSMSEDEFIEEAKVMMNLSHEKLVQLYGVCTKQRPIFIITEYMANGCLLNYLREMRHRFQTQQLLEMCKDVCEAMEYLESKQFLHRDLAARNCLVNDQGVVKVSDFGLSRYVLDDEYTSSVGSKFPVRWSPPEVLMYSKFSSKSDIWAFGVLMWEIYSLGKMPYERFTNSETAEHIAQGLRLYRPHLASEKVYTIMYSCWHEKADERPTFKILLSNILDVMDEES
row,DC50 [nM],SMILES
1,< 1,"CN1CCN([C@@H]2CCCN(c3nnc(C(N)=O)c(Nc4ccc(N5CCN(CC6CCN(c7ccc(N8CCC(=O)NC8=O)c(C(N)=O)c7)CC6)CC5)c(F)c4)n3)C2)C1=O [Compound 233, (R)-5-((4-(4-((1-(3-carbamoyl-4-(2,4-dioxotetrahydropyrimidin-1(2H)-yl)phenyl)piperidin-4-yl)methyl)piperazin-1-yl)-3-fluorophenyl)amino)-3-(3-(3-methyl-2-oxoimidazolidin-1-yl)piperidin-1-yl)-1,2,4-triazin-6-carboxamide]"
2,< 1,"CN1CCN([C@@H]2CCCN(c3nnc(C(N)=O)c(Nc4ccc(N5CCN(CC6CCN(c7ccc(N8CCC(=O)NC8=O)cc7)CC6)C(=O)C5)c(F)c4)n3)C2)C1=O [Compound 235, (R)-5-((4-(4-((1-(4-(2,4-dioxotetrahydropyrimidin-1(2H)-yl)phenyl)piperidin-4-yl)methyl)-3-oxopiperazin-1-yl)-3-fluorophenyl)amino)-3-(3-(3-methyl-2-oxoimidazolidin-1-yl)piperidin-1-yl)-1,2,4-triazin-6-carboxamide]"
3,< 1,"CN1CCN([C@@H]2CCCN(c3nnc(C(N)=O)c(Nc4ccc(N5CCN(CC6CCN(c7ccc8c(C9CCC(=O)NC9=O)noc8c7)CC6)CC5)c(F)c4)n3)C2)C1=O (stereo partly drawn) [Compound 243, 5-((4-(4-((1-(3-(2,6-dioxopiperidin-3-yl)benzo[d]isoxazol-6-yl)piperidin-4-yl)methyl)piperazin-1-yl)-3-fluorophenyl)amino)-3-((R)-3-(3-methyl-2-oxoimidazolidin-1-yl)piperidin-1-yl)-1,2,4-triazin-6-carboxamide]"
4,< 1,"CN1CCN([C@@H]2CCCN(c3nnc(C(N)=O)c(Nc4ccc(N5CCN(CC6CCN(c7ccn8c(C9CCC(=O)NC9=O)cnc8c7)CC6)CC5)c(F)c4)n3)C2)C1=O (stereo partly drawn) [Compound 244, 5-((4-(4-((1-(3-(2,6-dioxopiperidin-3-yl)imidazo[1,2-a]pyridin-7-yl)piperidin-4-yl)methyl)piperazin-1-yl)-3-fluorophenyl)amino)-3-((R)-3-(3-methyl-2-oxoimidazolidin-1-yl)piperidin-1-yl)-1,2,4-triazin-6-carboxamide]"
5,< 1,CN1CCN([C@@H]2CCCN(c3nnc(C(N)=O)c(Nc4ccc(N5CCN(CC6CCN(c7ccn8c(N9CCC(=O)NC9=O)cnc8c7)CC6)CC5)c(F)c4)n3)C2)C1=O [Compound 245]
6,< 1,"CN1CCN([C@@H]2CCCN(c3nnc(C(N)=O)c(Nc4ccc(N5CCN(CC6CCN(c7ccc8c9c(cccc79)C(=O)N8C7CCC(=O)NC7=O)CC6)CC5)c(F)c4)n3)C2)C1=O (stereo partly drawn) [Compound 247, 5-((4-(4-((1-(1-(2,6-dioxopiperidin-3-yl)-2-oxo-1,2-dihydrobenzo[cd]indol-6-yl)piperidin-4-yl)methyl)piperazin-1-yl)-3-fluorophenyl)amino)-3-((R)-3-(3-methyl-2-oxoimidazolidin-1-yl)piperidin-1-yl)-1,2,4-triazin-6-carboxamide]"
7,< 1,"CN1CCN([C@@H]2CCCN(c3nnc(C(N)=O)c(Nc4ccc(N5CCN(CC6CCN(c7cccc8c(C(=O)NC9CCC(=O)NC9=O)cccc78)CC6)CC5)c(F)c4)n3)C2)C1=O (stereo partly drawn) [Compound 249, 5-((4-(4-((1-(5-((2,6-dioxopiperidin-3-yl)carbamoyl)naphthalen-1-yl)piperidin-4-yl)methyl)piperazin-1-yl)-3-fluorophenyl)amino)-3-((R)-3-(3-methyl-2-oxoimidazolidin-1-yl)piperidin-1-yl)-1,2,4-triazin-6-carboxamide]"
8,< 1,"CN1CCN([C@@H]2CCCN(c3nnc(C(N)=O)c(Nc4ccc(N5CCN(CC6CCN(c7ccnc8c(C(=O)NC9CCC(=O)NC9=O)cccc78)CC6)CC5)c(F)c4)n3)C2)C1=O (stereo partly drawn) [Compound 250, 4-(4-((4-(4-((6-carbamoyl-3-((R)-3-(3-methyl-2-oxoimidazolidin-1-yl)piperidin-1-yl)-1,2,4-triazin-5-yl)amino)-2-fluorophenyl)piperazin-1-yl)methyl)piperidin-1-yl)-N-(2,6-dioxopiperidin-3-yl)quinolin-8-carboxamide]"
9,< 1,CN1CCN([C@@H]2CCCN(c3nnc(C(N)=O)c(Nc4ccc(N5CCN(CC6CCN(c7ccc(NC8CCC(=O)NC8=O)cc7F)CC6)CC5)c(F)c4)n3)C2)C1=O (some centres unmarked) [Compound 251]
10,< 1,CN1CCN([C@@H]2CCCN(c3nnc(C(N)=O)c(Nc4ccc(N5CCN(CC6CCN(c7ccc(NC8CCC(=O)NC8=O)cc7C(F)(F)F)CC6)CC5)c(F)c4)n3)C2)C1=O (some centres unmarked) [Compound 252]
11,< 1,"CN1CCN([C@@H]2CCCN(c3nnc(C(N)=O)c(Nc4ccc(N5CCN(CC6CCN(c7ccc(NC8CCC(=O)NC8=O)cc7)CC6)CC5)c(F)c4)n3)C2)C1=O (stereo partly drawn) [Compound 253, 5-((4-(4-((1-(4-((2,6-dioxopiperidin-3-yl)amino)phenyl)piperidin-4-yl)methyl)piperazin-1-yl)-3-fluorophenyl)amino)-3-((R)-3-(3-methyl-2-oxoimidazolidin-1-yl)piperidin-1-yl)-1,2,4-triazin-6-carboxamide]"

# The remaining lines, values behind:
row,SMILES,DC50 [nM]
1,"CN1CCN([C@@H]2CCCN(c3nnc(C(N)=O)c(Nc4cc(F)c5c(c4)CCN(CC4CCN(c6ccc7c(c6)C(=O)N(C6CCC(=O)NC6=O)C7=O)CC4)CC5)n3)C2)C1=O (stereo partly drawn) [Compound 231, 5-((3-((1-(2-(2,6-dioxopiperidin-3-yl)-1,3-dioxoisoindolin-5-yl)piperidin-4-yl)methyl)-9-fluoro-2,3,4,5-tetrahydro-1H-benzo[d]azepin-7-yl)amino)-3-((R)-3-(3-methyl-2-oxoimidazolidin-1-yl)piperidin-1-yl)-1,2,4-triazin-6-carboxamide]",< 1
2,"Cc1cc(N2CCC(CN3CCC(c4ccc(Nc5nc(N6CCC[C@@H](N7CCN(C)C7=O)C6)nnc5C(N)=O)cc4CO)CC3)CC2)ccc1N1CCC(=O)NC1=O [Compound 237, (R)-5-((4-(1-((1-(4-(2,4-dioxotetrahydropyrimidin-1(2H)-yl)-3-methylphenyl)piperidin-4-yl)methyl)piperidin-4-yl)-3-(hydroxymethyl)phenyl)amino)-3-(3-(3-methyl-2-oxoimidazolidin-1-yl)piperidin-1-yl)-1,2,4-triazin-6-carboxamide]",< 1
3,"Cc1cc(N2CCC(CN3CCC(c4ccc(Nc5nc(N6CCC[C@@H](N7CCN(C)C7=O)C6)nnc5C(N)=O)c(CO)c4)CC3)CC2)ccc1N1CCC(=O)NC1=O [Compound 238, (R)-5-((4-(1-((1-(4-(2,4-dioxotetrahydropyrimidin-1(2H)-yl)-3-methylphenyl)piperidin-4-yl)methyl)piperidin-4-yl)-2-(hydroxymethyl)phenyl)amino)-3-(3-(3-methyl-2-oxoimidazolidin-1-yl)piperidin-1-yl)-1,2,4-triazin-6-carboxamide]",< 1
4,"Cc1cc(N2CC(CC(=O)N3CCC(c4ccc(Nc5nc(N6CCC[C@@H](N7CCN(C)C7=O)C6)nnc5C(N)=O)c(CO)c4)CC3)C2)ccc1N1CCC(=O)NC1=O [Compound 239, (R)-5-((4-(1-(2-(1-(4-(2,4-dioxotetrahydropyrimidin-1(2H)-yl)-3-methylphenyl)azetidin-3-yl)acetyl)piperidin-4-yl)-2-(hydroxymethyl)phenyl)amino)-3-(3-(3-methyl-2-oxoimidazolidin-1-yl)piperidin-1-yl)-1,2,4-triazin-6-carboxamide]",< 1
5,"CN1CCN([C@@H]2CCCN(c3nnc(C(N)=O)c(Nc4ccc(C5CCN(CC6CCN(c7ccc(N8CCC(=O)NC8=O)cc7)CC6)CC5)c(CO)c4)n3)C2)C1=O [Compound 240, (R)-5-((4-(1-((1-(4-(2,4-dioxotetrahydropyrimidin-1(2H)-yl)phenyl)piperidin-4-yl)methyl)piperidin-4-yl)-3-(hydroxymethyl)phenyl)amino)-3-(3-(3-methyl-2-oxoimidazolidin-1-yl)piperidin-1-yl)-1,2,4-triazin-6-carboxamide]",< 1
6,"Cc1cc(N2CCC(CN3CCC(c4ccc(Nc5nc(N6CCC[C@@H](N7CCN(C)C7=O)C6)c(F)nc5C(N)=O)cc4F)CC3)CC2)ccc1N1CCC(=O)NC1=O [Compound 241, (R)-3-((4-(1-((1-(4-(2,4-dioxotetrahydropyrimidin-1(2H)-yl)-3-methylphenyl)piperidin-4-yl)methyl)piperidin-4-yl)-3-fluorophenyl)amino)-6-fluoro-5-(3-(3-methyl-2-oxoimidazolidin-1-yl)piperidin-1-yl)pyrazin-2-carboxamide]",< 1
7,"Cc1cc(N2CCC(CN3CCC(c4ccc(Nc5c(F)c(N6CCC[C@@H](N7CCN(C)C7=O)C6)c(F)c(F)c5C(N)=O)cc4F)CC3)CC2)ccc1N1CCC(=O)NC1=O [Compound 242, (R)-2-((4-(1-((1-(4-(2,4-dioxotetrahydropyrimidin-1(2H)-yl)-3-methylphenyl)piperidin-4-yl)methyl)piperidin-4-yl)-3-fluorophenyl)amino)-3,5,6-trifluoro-4-(3-(3-methyl-2-oxoimidazolidin-1-yl)piperidin-1-yl)benzamide]",< 1
8,"CN1CCN([C@@H]2CCCN(c3nnc(C(N)=O)c(Nc4ccc(N5CCN(CC#Cc6ccn7c(N8CCC(=O)NC8=O)cnc7c6)CC5)c(F)c4)n3)C2)C1=O [Compound 246, (R)-5-((4-(4-(3-(3-(2,4-dioxotetrahydropyrimidin-1(2H)-yl)imidazo[1,2-a]pyridin-7-yl)propan-2-yn-1-yl)piperazin-1-yl)-3-fluorophenyl)amino)-3-(3-(3-methyl-2-oxoimidazolidin-1-yl)piperidin-1-yl)-1,2,4-triazin-6-carboxamide]",< 1
9,"CN1CCN([C@@H]2CCCN(c3nnc(C(N)=O)c(Nc4ccc(N5CCN(CC#Cc6ccc7c8c(cccc68)C(=O)N7C6CCC(=O)NC6=O)CC5)c(F)c4)n3)C2)C1=O (stereo partly drawn) [Compound 248, 5-((4-(4-(3-(1-(2,6-dioxopiperidin-3-yl)-2-oxo-1,2-dihydrobenzo[cd]indol-6-yl)propan-2-yn-1-yl)piperazin-1-yl)-3-fluorophenyl)amino)-3-((R)-3-(3-methyl-2-oxoimidazolidin-1-yl)piperidin-1-yl)-1,2,4-triazin-6-carboxamide]",< 1
